Where two headings read alike, the source gives them in different places.
How the values were obtained:
[1] = target: T1, phosphodiesterase 4 (PDE4), PDE4A1A (Homo sapiens, UniProt P27815); test: PDE4A1A Assay Kit, fluorescence polarization; type: biochemical
T1 construct: purchased BSP Bioscience 60340
Protocol: Inhibition of PDE4 blocks hydrolysis of cAMP, thereby increasing levels of cAMP. The PDE4A1A Assay Kit is designed for identification of PDE4A1A inhibitors using fluorescence polarization. The assay is based on the binding of fluorescent AMP generated by PDE4A1A to the binding agent.
The assay was performed according to the protocol of the PDE4A1A assay provided by BSP Bioscience [BSP Bioscience, Data sheet PDE4A1A Assay Kit, Catalog #60340].
(§1) A fluorescence plate reader (Appliskan, Thermo Scientific) was used to detect fluorescence emission signals according to the following parameters:
(§2) Selected alkaloids of the invention prepared in example 1 were tested in 5 times dilutions to establish the 50% inhibitory concentration (IC-50).

[2] = target: T2, phosphodiesterase 5A (PDE5) (Homo sapiens, UniProt O76074); test: PDE5A Assay Kit, fluorescence polarization; type: biochemical
T2 construct: purchased BSP Bioscience 60350
Protocol: Inhibition of PDE5 blocks hydrolysis of cGMP, thereby increasing levels of cGMP. The PDE5A Assay Kit is designed for identification of PDE5A inhibitors using fluorescence polarization. The assay is based on the binding of a fluorescent nucleotide monophosphate generated by PDE5A to the binding agent.
The assay was performed according to the protocol of the PDE5A assay provided by BSP Bioscience [BSP Bioscience, Data sheet PDE5A Assay Kit, Catalog #60350].
as §1, §2

[3] = target: T3, IkappaB kinase β (IKK-β) (Homo sapiens, UniProt O14920); test: IKK-β inhibition, Z'-LYTE Kinase Assay Kit Ser/Thr 5 Peptide (FRET); type: biochemical
T3 construct: purchased Invitrogen
T3 sequence (O14920 1-756): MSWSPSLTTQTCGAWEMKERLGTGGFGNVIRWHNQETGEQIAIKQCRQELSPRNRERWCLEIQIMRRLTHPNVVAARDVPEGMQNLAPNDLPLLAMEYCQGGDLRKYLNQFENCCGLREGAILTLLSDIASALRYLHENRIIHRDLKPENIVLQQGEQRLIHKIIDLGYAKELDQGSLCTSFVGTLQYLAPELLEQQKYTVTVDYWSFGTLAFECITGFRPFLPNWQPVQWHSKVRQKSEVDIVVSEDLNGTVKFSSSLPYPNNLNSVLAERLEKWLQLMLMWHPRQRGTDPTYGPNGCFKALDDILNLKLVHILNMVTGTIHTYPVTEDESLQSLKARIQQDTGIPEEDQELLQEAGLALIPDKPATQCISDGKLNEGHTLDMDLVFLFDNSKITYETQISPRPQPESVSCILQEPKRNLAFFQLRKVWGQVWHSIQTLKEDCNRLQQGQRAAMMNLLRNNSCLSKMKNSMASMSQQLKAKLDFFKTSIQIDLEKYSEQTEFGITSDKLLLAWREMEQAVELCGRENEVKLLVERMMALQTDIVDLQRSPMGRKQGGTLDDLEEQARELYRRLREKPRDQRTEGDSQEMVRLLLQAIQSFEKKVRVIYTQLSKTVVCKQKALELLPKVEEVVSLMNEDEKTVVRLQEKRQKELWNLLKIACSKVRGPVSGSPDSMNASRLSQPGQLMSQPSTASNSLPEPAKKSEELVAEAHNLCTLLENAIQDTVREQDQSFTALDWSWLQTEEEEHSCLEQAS
Protocol: IKK-β phosphorylates the inhibitory IκB protein associated with NF-κB. Phosphorylation results in the dissociation of IκB from NF-κB, allowing NF-κB to migrate into the cell nucleus where it can activate the transcription of at least 150 genes. The Z9-LYTE™ Kinase Assay Kit—Ser/Thr 5 Peptide is designed to screen for potential IKK-β inhibitory effect using fluorescence resonance energy transfer (FRET) between coumarin and fluorescein for detection by a fluorometer.
The assay was performed according to Z9-LYTE™ KINASE ASSAY KIT—SER/THR 5 PEPTIDE protocol provided by Invitrogen [Invitrogen, Z′-LYTE™ Kinase Assay Kit—Ser/Thr 5 Peptide Protocol, O-062187-r1 US 0405]. Based on the IKK-β certificate of the kit, a kinase concentration of 500 ng/ml was chosen. Km for ATP 9.4 μM was chosen according to an optimization for the LanthaScreen™ kinase assay [http://tools.invitrogen.com/content/sfs/manuals/IKBKB_%28IKK_beta %29_LanthaScreen_Activity.pdf].
as §1, §2

[4] = system: hyperlipidemic guinea pigs; test: Hypocholesterolemic effect in hyperlipidemic guinea pigs induced by high fat diet; type: in vivo, guinea pig; conditions: 10 mg/kg oral once daily, 28 days
Protocol: Male Dunkin-Hartley guinea pigs weighing 300+/−30 g were acclimated one week before the in-life phase of the experiment. The study diet (Research Diets Inc, New Brunswick, N.J., USA) contained 15% corn oil and 0.25% cholesterol. A daily oral dose of 2000 mg/kg of RAP2 corresponding 9 μg/kg of Ribetril A and 82 μg/kg total Ribetrils as well as 632 μg/kg total Glucoindols was administered orally at a dosing volume of 10 mL/kg. A daily oral dose of 2000 mg/kg of RAP4 corresponding to 112 μg/kg of Ribetril A and 492 μg/kg total Ribetrils as well as 240 μg/kg total Glucoindols was administered orally at a dosing volume of 10 mL/kg. The positive control atorvastatin (10 mg/kg) and vehicle (0.5% methylcellulose) were each administered orally at a dosing volume of 10 mL/kg. […]
After fasting overnight, blood samples were obtained from the retro-orbital sinus of each animal 5 min before initial test substance and/or vehicle administration (pre-treatment) and 24 hours after dosing on days 14 and 28 (post-treatment). The serum total cholesterol (TC), low density lipoprotein cholesterol (LDL-C), high density lipoprotein cholesterol (HDL-C) and triglycerides (TG) were determined by an enzymatic method (Wako total cholesterol, LDL-C, HDL-C & TG diagnostic kit and Toshiba Automatic Analyzer Model TAB-120FR).

[5] = system: BKS Cg-Lepr db/Lepr db mice; test: Hypoglycemic effect in BKS Cg-Lepr db/Lepr db mice (NIDDM model); type: in vivo, mouse; conditions: 300 mg/kg oral daily, day 14 post dosing
Protocol: Male non-insulin dependent diabetic mellitus (NIDDM) mice (BKS Cg-Lepr db/Lepr db) weighing 50+/−5 g were used at age of 12-13 weeks. A daily oral dose of 2000 mg/kg of RAP4 corresponding to corresponding to 112 μg/kg of Ribetril A and 492 μg/kg total Ribetrils as well as 240 μg/kg total Glucoindols was administered orally at a dosing volume of 10 mL/kg to 12 animals for a total of 14 consecutive days. The positive control of metformin (300 mg/kg) and vehicle (2% Tween 80) were each administered orally at a dosing volume of 10 mL/kg to groups of 6 animals once daily for a total of 14 consecutive days. Serum glucose levels were measured by means of an automated analyzer (TBA-120FR, Toshiba) and serum insulin by ELISA at zero min (pre-treatment) on Day 1, and at 90 min after the daily dosing (post-treatment) on Day 7 and Day 14.

[6] = read-out: Inhibitory effect on PDE4 IC-50
[7] = read-out: Inhibitory effect on PDE5 IC-50
[8] = read-out: Inhibitory effect on IKK-β IC-50

T1 sequence (P27815 1-647 isoform P27815-4): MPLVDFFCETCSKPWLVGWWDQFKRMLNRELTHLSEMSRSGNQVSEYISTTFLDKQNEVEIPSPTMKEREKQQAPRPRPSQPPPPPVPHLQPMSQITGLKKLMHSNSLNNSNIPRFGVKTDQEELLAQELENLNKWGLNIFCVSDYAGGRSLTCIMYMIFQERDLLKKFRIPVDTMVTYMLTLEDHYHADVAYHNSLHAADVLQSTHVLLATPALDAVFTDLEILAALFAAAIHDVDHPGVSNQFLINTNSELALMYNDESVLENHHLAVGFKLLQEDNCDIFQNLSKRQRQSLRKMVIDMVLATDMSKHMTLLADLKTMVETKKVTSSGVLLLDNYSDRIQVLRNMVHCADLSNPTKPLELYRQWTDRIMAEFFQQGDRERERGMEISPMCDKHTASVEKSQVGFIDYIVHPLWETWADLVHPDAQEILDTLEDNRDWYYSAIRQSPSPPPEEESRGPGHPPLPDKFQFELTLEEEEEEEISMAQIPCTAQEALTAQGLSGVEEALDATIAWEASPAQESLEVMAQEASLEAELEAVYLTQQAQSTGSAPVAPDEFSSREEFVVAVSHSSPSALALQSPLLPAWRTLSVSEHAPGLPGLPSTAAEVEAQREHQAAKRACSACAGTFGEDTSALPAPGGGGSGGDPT

| SMILES | IC50 [1, 6] [µM] | IC50 [2, 7] [µM] | IC50 [3, 8] [µM] | also measured |
| --- | --- | --- | --- | --- |
| O=C(O)Cc1cn([C@@H]2O[C@H](CO)[C@@H](O)[C@H](O)[C@H]2O)c2ccccc12 [Glucoindol A, 2-(1-((2R,3R,4S,5S,6R)-3,4,5-trihydroxy-6-(hydroxymethyl)tetrahydro-2H-pyran-2-yl)-1H-indol-3-yl)acetic acid] | 86.1 |  |  |  |
| COC(=O)Cc1cn([C@@H]2O[C@H](CO)[C@@H](O)[C@H](O)[C@H]2O)c2ccccc12 [Glucoindol B, methyl 2-(1-((2R,3R,4S,5S,6R)-3,4,5-trihydroxy-6-(hydroxymethyl)tetrahydro-2H-pyran-2-yl)-1H-indol-3-yl)acetate] | 45.6 |  |  |  |
| N#C/C(=C\CO[C@@H]1O[C@H](CO)[C@@H](O)[C@H](O)[C@H]1O)COC(=O)/C=C/c1ccc(O)c(O)c1 [Ribetril A, (E)-(E)-2-cyano-4-(((2R,3R,4S,5S,6R)-3,4,5-trihydroxy-6-(hydroxymethyl)tetrahydro-2H-pyran-2-yl)oxy)but-2-en-1-yl 3-(3,4-dihydroxyphenyl)acrylate] | 2.95 | 2.1 | 0.13 | times lower IC-50 as compared to Ribetril B (PDE5) ([2]; vs Ribetril B): 3 times; times lower IC-50 as compared to Ribetril C (PDE5) ([2]; vs Ribetril C): 8 times; times lower IC-50 as compared to Ribetril B (PDE4) ([1]; vs Ribetril B): 5 times; times lower IC-50 as compared to Ribetril C (PDE4) ([1]; vs Ribetril C): 20 times; times lower IC-50 as compared to Ribetril B (IKK-β) ([3]; vs Ribetril B): 48 times; times lower IC-50 as compared to Ribetril C (IKK-β) ([3]; vs Ribetril C): 118 times |
| COc1cc(/C=C/C(=O)OC/C(C#N)=C/CO[C@@H]2O[C@H](CO)[C@@H](O)[C@H](O)[C@H]2O)ccc1O [Ribetril B, (E)-(E)-2-cyano-4-(beta-D-glucopyranosyloxy)but-2-en-1-yl 3-(4-hydroxy-3-methoxyphenyl)acrylate] | 14 | 5.4 | 6.3 |  |
| N#C/C(=C\CO[C@@H]1O[C@H](CO)[C@@H](O)[C@H](O)[C@H]1O)COC(=O)/C=C/c1ccc(O)cc1 [Ribetril C, (E)-(E)-2-cyano-4-(beta-D-glucopyranosyloxy)but-2-en-1-yl 3-(4-hydroxyphenyl)acrylate] | 59.7 | 17.2 | 15.3 |  |
| COc1cc(C(=O)OC/C(C#N)=C/CO[C@@H]2O[C@H](CO)[C@@H](O)[C@H](O)[C@H]2O)ccc1O [Ribetril D, (E)-2-cyano-4-(beta-D-glucopyranosyloxy)but-2-en-1-yl 4-hydroxy-3-methoxybenzoate] |  |  |  | IC50 [2]: < 0.04 µM; IC50 [1]: 0.23 µM; IC50 [3]: 0.037 µM |
| N#C/C(=C\CO[C@@H]1O[C@H](CO)[C@@H](O)[C@H](O)[C@H]1O)COC(=O)c1ccc(O)cc1 [Ribetril E, (E)-2-cyano-4-(beta-D-glucopyranosyloxy)but-2-en-1-yl 4-hydroxybenzoate] | 3.5 | 3.4 | 1.9 |  |
| CC(C)c1c(C(=O)Nc2ccccc2)c(-c2ccccc2)c(-c2ccc(F)cc2)n1CC[C@@H](O)C[C@@H](O)CC(=O)O [atorvastatin] |  |  |  | triglyceride reduction [4]: did not significantly reduce triglycerides |
| CN(C)C(=N)N=C(N)N [metformin] |  |  |  | serum glucose levels relative to vehicle control [5]: significant decrease |

Reference: US9023816B2, “Bioactive alkaloid compositions and their medical uses” (Asiros A/S, priority 2013, dated 2015)
